Experimental findings from US20170368018A1, “USE OF ELLAGIC ACID DIHYDRATE IN PHARMACEUTICAL FORMULATIONS TO REGULATE BLOOD GLUCOSE LEVELS” (HALO LIFE SCIENCE, LLC, priority 2014, published 2017) are described below.

The subject of data set [1] is GLUT4-GFP in mouse myoblast C2C12 cells. Put plainly: Localization of glucose transporter GLUT4-GFP, time-lapse confocal microscopy. It counts as cell-based. As to conditions: C2C12, 4000 nM. How it is done:
Induction of glucose transporter, GLUT-4, in ellagic acid dihydrate treated cell cultures was studied. Cellular assays were performed using mouse myoblast C2C12 cells. The cells were infected with a fusion glucose transporter 4 green fluorescent protein (GLUT4-GFP). This protein allows the visualization of GLUT4 by imaging the GFP under fluorescent time-lapse microscopy. Frames were compiled to produce time-lapse images of cellular changes with no treatment or treatment with insulin. The localization of glucose transporter (GLUT4-GFP) was performed in final incubation volume of 505 μL, consisting of 500 μL of Hank's Buffer (Invitrogen) and 5 μl of tested compounds. Insulin was used as positive controls and vehicle (0.1% DMSO) as the negative control. All test compounds were prepared in 10% DMSO and diluted 1:100 for a final concentration of 0.1% DMSO (vehicle). The cells were rinsed in Hank's Buffer thrice and then incubated in Hank's Buffer at 37° C. for one hour. The test compounds were added (ellagic acid dihydrate, insulin, or vehicle) and the cells were imaged using laser-confocal microscopy (Leica TCS SP5 X) with FITC fluorescent filters to determine changes in GLUT4-GFP localization. Time-lapse images (TIF) were collected and post-processed using Image-J (NIH) for video construction.

Data set [2] concerns the target glucose oxidase reaction (Aspergillus niger, UniProt P13006). Put plainly: Direct interaction with glucose, glucose oxidase based glucometer on serum. Type of data set: biochemical. As to conditions: incubated with serum at room temperature for five minutes or overnight at 37° C. On the procedure: Ellagic acid dihydrate was analyzed for direct interaction with glucose. A glucose oxidase based glucometer was used to measure serum glucose. Ellagic acid dihydrate was incubated with serum at room temperature for five minutes or overnight at 37° C. Upon testing the mixture, no inhibition of the glucose oxidase reaction was observed. Ellagic acid dihydrate is not believed to directly interact with glucose.

For data set [3], the system named is mouse embryonic fibroblasts (MEFs). Put plainly: Cytotoxicity: cell membrane integrity by propidium iodide (PI) labeling. It counts as cell-based. As to conditions: 48 hr exposure. On the procedure:
The cytotoxicity of ellagic acid dihydrate in in vitro cell culture was evaluated. Cellular assays were performed using mouse embryonic fibroblasts (MEFs). Cells were unexposed (No Treatment) or exposed to varying concentrations of ellagic acid dihydrate (4 μM-0.04 nM) or vehicle (0.1% DMSO) for 48 hrs. All assays were run in triplicate.
Loss of cellular membrane integrity is an indication of cell death. Cell membrane integrity/cell toxicity was determined by adding propidium iodide (PI) to suspended cells prior to flow cytometry. PI is a red-fluorescent DNA stain that is excluded by live-healthy cells but will enter dead cells in a population. The presence of PI in 500-1000 cells per treatment group was determined by flow cytometry (Accuri C6, BD Biosciences). Cell with disrupted membranes, associated with cell death, are expected to be positively labeled with PI.

In data set [4] the test system is MEF cells. Put plainly: Glucose uptake, 2-NBDG labeling, high-content imaging (Operetta), MEFs. Type of data set: cell-based, mouse. How it is done: Increased glucose uptake was indicated as increasing signal of 2-NBDG ([…]) in cells. Glucose uptake assays were carried out in a final incubation volume of 50 μl consisting of, 2-NBDG), (100 μM) in 1× Phosphate Buffered Saline w/Ca+, Mg+ (PBS++). The same buffer was used for washing cells. Insulin was used as a positive control. All testing compounds were prepared in 10% DMSO and diluted 1:100 for a final concentration of 0.1% DMSO (vehicle). Cells were culture to 70-90% confluence and then washed twice with PBS++. Cells were incubated for 30 minutes at 37° C. in PBS++. Nuclear stain, HCS CellMask stain (blue, Invitrogen), and/or testing compounds (ellagic acid dihydrate, insulin, or vehicle) were added. Cells were incubated for 30 min at 37° C. Cells were washed twice with PBS++and incubated with 2-NBDG for 10 minutes. Cells were washed thrice with PBS++and then imaged in PBS++. Alternatively, the final PBS wash was removed and cells were incubated with Accutase (Invitrogen) for 10 min at 37° C., neutralized with 10% FBS in 1× PBS, and analyzed by flow cytometry. An additional experiment was performed to measure glucose uptake in C2C12 cells exposed to metformin, insulin and ellagic acid dihydrate 2 (batch 2). FIG. 5C. Glucose uptake in ellagic acid dihydrate treated cell culture was measured and compared to glucose uptake under insulin or ellagic acid treatment. […] Flow cytometry results were run in triplicate with 1000 cells per batch.

glucose oxidase reaction, sequence (P13006 17-605): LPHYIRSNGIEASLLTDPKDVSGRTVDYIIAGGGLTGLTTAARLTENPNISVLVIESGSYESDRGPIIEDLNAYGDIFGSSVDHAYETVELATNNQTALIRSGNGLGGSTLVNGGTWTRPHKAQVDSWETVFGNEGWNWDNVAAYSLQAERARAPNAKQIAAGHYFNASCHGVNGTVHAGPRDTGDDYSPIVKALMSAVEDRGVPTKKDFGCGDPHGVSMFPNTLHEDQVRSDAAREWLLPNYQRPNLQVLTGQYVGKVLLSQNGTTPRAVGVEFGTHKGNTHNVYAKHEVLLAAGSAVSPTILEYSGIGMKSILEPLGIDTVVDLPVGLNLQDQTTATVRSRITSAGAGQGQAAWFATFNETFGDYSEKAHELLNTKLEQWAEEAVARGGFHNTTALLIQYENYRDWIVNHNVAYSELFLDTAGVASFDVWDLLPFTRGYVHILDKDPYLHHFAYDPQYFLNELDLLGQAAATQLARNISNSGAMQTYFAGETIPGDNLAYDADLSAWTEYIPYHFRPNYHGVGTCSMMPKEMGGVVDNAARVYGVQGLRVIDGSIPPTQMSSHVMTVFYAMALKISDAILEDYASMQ

Consider `O.O.O=c1oc2c(O)c(O)cc3c(=O)oc4c(O)c(O)cc1c4c23` [ellagic acid dihydrate], for which, in data set [1], the “GLUT4-GFP around the cell nucleus” value was “decrease in nuclear GLUT4-GFP”; the “ruffling of filopodia at the surface of the cell” value is reported as “rapid ruffling of filopodia”; the “time course of GLUT4-GFP and membrane changes compared with insulin” value is reported as “slightly delayed”. Besides, the “inhibition of the glucose oxidase reaction” value in data set [2] was “no inhibition”. Further, the “Cell membrane integrity relative to the vehicle or untreated cells” value in data set [3] (400 nM-0.4 nM, not statistically significant (P>0.05)) is “increased”. Moreover, the “Cell membrane integrity (% cells negative for PI)” value in data set [3] (4000 nM) came to 95.40%. Further, in data set [4], the “dose effect for increasing glucose uptake” value is listed as “showed a dose effect” and the “glucose uptake (signal of 2-NBDG) in comparison to vehicle” value is “showed an increase in glucose uptake”. Moreover, the “glucose uptake (2-NBDG signal) relative to vehicle treated or Insulin treated cells” value in data set [4] (data not shown) is listed as “significantly greater”.
